Patent US9102648B1, “Bioavailable diacylhydrazine ligands for modulating the expression of exogenous genes via an ecdysone receptor complex” (Intrexon Corporation, priority 2003, dated 2015)
Where two headings read alike, the source gives them in different places.

Biological target: GAL4 DBD (1-147)-CfEcR(DEF)/VP16AD-βRXREF-LmUSPEF (Choristoneura fumiferana, UniProt O77240)
Test: cell-based
Conditions: for Fold Induction, 27-63 Assay, 3.3 uM: 3.3 uM ligand; for Fold Induction, 27-63 Assay, 3.3 uM / Fold Induction, 27-63 Assay, 33 uM: RLU ligand treated / RLU DMSO treated cells; for Fold Induction, 27-63 Assay, 33 uM: 33 uM ligand; for 27-63 assay Rel Max FI: maximum fold induction at any concentration relative to that of GS-E ligand, CHO 27-63 cells; for fold induction at 3.3 µM: read-out: Fold Induction, 27-63 Assay, 3.3 uM; for fold induction at 33 µM: read-out: Fold Induction, 27-63 Assay, 33 uM
[1] = read-out: 27-63 assay EC50, CHO 27-63 stable cell line, luciferase reporter, average of two wells

COc1cccc(C(=O)NN(C(=O)c2cccc(C)c2)C(C)(C)C)c1C [RG-100694]
Fold Induction, 27-63 Assay, 3.3 uM (average of two wells): 1057
Fold Induction, 27-63 Assay, 33 uM (average of two wells): 1004
27-63 assay Rel Max FI: 0.767
EC50 [1]: 400 nM

CCc1c(OC)cccc1C(=O)NN(C(=O)c1cc(Cl)ccc1[N+](=O)[O-])C(C)(C)C [RG-115257]
Fold Induction, 27-63 Assay, 3.3 uM (average of two wells): 1130
Fold Induction, 27-63 Assay, 33 uM (average of two wells): 1320
27-63 assay Rel Max FI: 0.663
EC50 [1]: 698 nM

CCc1c(C(=O)NN(C(=O)c2cccc(OC)c2)C(C)(C)C)ccc2c1OCCO2 [RG-100691]
Fold Induction, 27-63 Assay, 3.3 uM (average of two wells): 1378
Fold Induction, 27-63 Assay, 33 uM (average of two wells): 1209
27-63 assay Rel Max FI: 0.863
EC50 [1]: 330 nM

CCOC(=O)C(C)(C)N(NC(=O)c1cccc(OC)c1CC)C(=O)c1cc(C)cc(C)c1 [RG-115025, 2-[N-(3,5-dimethyl-benzoyl)-N′-(2-ethyl-3-methoxy-benzoyl)-hydrazino]-2-methyl-propionic acid ethyl ester]
EC50: 2450 nM
27-63 assay Rel Max FI: 1.523
fold induction at 3.3 µM: 2290
fold induction at 33 µM: 2240

CCc1c(OC)cccc1C(=O)NN(C(=O)c1cc(C)cc(C)c1)C(C)(C)C=O [RG-115407, 2-ethyl-3-methoxy-benzoic acid N′-(3,5-dimethyl-benzoyl)-N′-(1,1-dimethyl-2-oxo-ethyl)-hydrazide]
EC50: 1060 nM
27-63 assay Rel Max FI: 0.932
fold induction at 3.3 µM: 1610
fold induction at 33 µM: 1520

COc1cccc(C(=O)NN(C(=O)c2cc(Cl)c(F)c(Cl)c2)C(C)(C)C)c1C [RG-101382, N-(3-methoxy-2-methylbenzoyl)-N′-(3,5-dichloro-4-fluorobenzoyl)-N′-tert-butylhydrazine]
EC50: 306 nM
27-63 assay Rel Max FI: 1.188
fold induction at 3.3 µM: 2700
fold induction at 33 µM: 2570

CCc1c(OC)cccc1C(=O)NN(C(=O)c1cc(OC)c(C)c(OC)c1)C(CC)C(C)(C)C (stereo not drawn) [RG-115831]
Fold Induction, 27-63 Assay, 3.3 uM (average of two wells): 2063
Fold Induction, 27-63 Assay, 33 uM (average of two wells): 1435
27-63 assay Rel Max FI: 1.366
EC50 [1]: 96 nM

Cc1c(C(=O)NN(C(=O)c2cc(F)c(Cl)cc2Cl)C(C)(C)C)ccc2c1CCCO2 [RG-115539]
Fold Induction, 27-63 Assay, 3.3 uM (average of two wells): 1076
Fold Induction, 27-63 Assay, 33 uM (average of two wells): 534
27-63 assay Rel Max FI: 0.595
EC50 [1]: 1180 nM

CCc1ccc(C(=O)NN(C(=O)c2cc(C)cc(C)c2)C(C)(C)C)cc1 [RG-102125]
EC50: 190 nM
27-63 assay Rel Max FI: 0.721

Cc1cc(C)cc(C(=O)N(NC(=O)c2ccc3c(c2C)OCCO3)C(C)(C)C)c1 [RG-102317, N-(5-methyl-1,4-benzodioxan-6-carbonyl)-N′-(tert-butyl)-N′-(3,5-dimethylbenzoyl)hydrazine]
EC50: 102 nM
27-63 assay Rel Max FI: 0.948
fold induction at 3.3 µM: 2550
fold induction at 33 µM: 2500

CCc1c(OC)cccc1C(=O)NN(C(=O)c1cc(C)cc(C)c1)C(C)(C)C=NO [RG-115258, 2-ethyl-3-methoxy-benzoic acid N′-(3,5-dimethyl-benzoyl)-N′-(2-hydroxyimino-1,1-dimethyl-ethyl)-hydrazide]
EC50: 1880 nM
27-63 assay Rel Max FI: 1.279
fold induction at 3.3 µM: 1970
fold induction at 33 µM: 2210

Cc1ccc([N+](=O)[O-])c(C(=O)N(NC(=O)c2ccc3c(c2C)CCCO3)C(C)(C)C)c1 [RG-115664]
Fold Induction, 27-63 Assay, 3.3 uM (average of two wells): 1928
Fold Induction, 27-63 Assay, 33 uM (average of two wells): 1768
27-63 assay Rel Max FI: 0.635
EC50 [1]: 359 nM

CCc1c(C(=O)NN(C(=O)c2ccc(Cl)cc2F)C(C)(C)C)ccc2c1OCCO2 [RG-115514]
Fold Induction, 27-63 Assay, 3.3 uM (average of two wells): 1616
Fold Induction, 27-63 Assay, 33 uM (average of two wells): 1427
27-63 assay Rel Max FI: 0.720
EC50 [1]: 170 nM

COc1ccccc1C(=O)N(NC(=O)c1ccc2c(c1C)CCCO2)C(C)(C)C [RG-115102]
Fold Induction, 27-63 Assay, 3.3 uM (average of two wells): 1154
Fold Induction, 27-63 Assay, 33 uM (average of two wells): 971
27-63 assay Rel Max FI: 0.667
EC50 [1]: 491 nM

Cc1c(C(=O)NN(C(=O)c2ccc(F)cc2)C(C)(C)C)ccc2c1OCCO2 [RG-100425]
Fold Induction, 27-63 Assay, 3.3 uM (average of two wells): 1156
Fold Induction, 27-63 Assay, 33 uM (average of two wells): 1099
27-63 assay Rel Max FI: 0.671
EC50 [1]: 370 nM

COc1cc(C(=O)N(NC(=O)c2ccc3c(c2C)OCCO3)C(C)(C)C)cc(OC)c1C [RG-115637, 5-Methyl-2,3-dihydro-benzo[1,4]dioxine-6-carboxylic acid N′-tert-butyl-N′-(3,5-dimethoxy-4-methyl-benzoyl)-hydrazide]
EC50: 117 nM
27-63 assay Rel Max FI: 1.305
fold induction at 3.3 µM: 4160
fold induction at 33 µM: 2740

CCc1c(OC)cccc1C(=O)NN(C(=O)c1ccccc1OC)C(C)(C)C [RG-100725]
Fold Induction, 27-63 Assay, 3.3 uM (average of two wells): 1096
Fold Induction, 27-63 Assay, 33 uM (average of two wells): 1050
27-63 assay Rel Max FI: 0.726
EC50 [1]: 330 nM

CCC(N(NC(=O)c1cccc(OC)c1C)C(=O)c1cc(OC)c(C)c(OC)c1)C(C)(C)C (stereo not drawn) [RG-115820, 3,5-dimethoxy-4-methyl-benzoic acid N-(1-ethyl-2,2-dimethyl-propyl)-N′-(3-methoxy-2-methyl-benzoyl)-hydrazide]
EC50: 193 nM
27-63 assay Rel Max FI: 1.270
fold induction at 3.3 µM: 2860
fold induction at 33 µM: 1970

CCc1c(C(=O)NN(C(=O)c2cc(C)cc(Cl)c2)C(C)(C)C)ccc2c1OCCO2 [RG-101494, N-(5-ethyl-1,4-benzodioxan-6-carbonyl)-N′-(tert-butyl)-N′-(3-chloro-5-methylbenzoyl)hydrazine]
EC50: 36 nM
27-63 assay Rel Max FI: 0.916
fold induction at 3.3 µM: 717
fold induction at 33 µM: 294

CCc1ccc(C(=O)NN(C(=O)c2cc(C)cc(C)c2)C(C)(C)C)c(F)c1 [RG-101523, 3,5-Dimethyl-benzoic acid N-tert-butyl-N′-(4-ethyl-2-fluoro-benzoyl)-hydrazide]
EC50: 165 nM
27-63 assay Rel Max FI: 0.943
fold induction at 3.3 µM: 2430
fold induction at 33 µM: 2740

Cc1c(C(=O)NN(C(=O)c2cc(F)c(F)c(F)c2F)C(C)(C)C)ccc2c1CCCO2 [RG-115518]
Fold Induction, 27-63 Assay, 3.3 uM (average of two wells): 1640
Fold Induction, 27-63 Assay, 33 uM (average of two wells): 1126
27-63 assay Rel Max FI: 0.866
EC50 [1]: 1050 nM

CCCC(N(NC(=O)c1cccc(OC)c1C)C(=O)c1cc(C)cc(C)c1)C(C)(C)C (stereo not drawn) [RG-115823]
Fold Induction, 27-63 Assay, 3.3 uM (average of two wells): 2093
Fold Induction, 27-63 Assay, 33 uM (average of two wells): 1025
27-63 assay Rel Max FI: 1.069
EC50 [1]: 11 nM

COc1ccc(OC)c(C(=O)N(NC(=O)c2cccc(C)c2C)C(C)(C)C)c1 [RG-100763]
Fold Induction, 27-63 Assay, 3.3 uM (average of two wells): 107
Fold Induction, 27-63 Assay, 33 uM (average of two wells): 1609
27-63 assay Rel Max FI: 0.856
EC50 [1]: 5300 nM

CCC(N(NC(=O)c1cccc(C)c1C)C(=O)c1cc(C)cc(C)c1)C(C)(C)C (stereo not drawn) [RG-103309, 3,5-dimethyl-benzoic acid N′-(2,3-dimethyl-benzoyl)-N-(1-ethyl-2,2-dimethyl-propyl)-hydrazide]
EC50: 3020 nM
27-63 assay Rel Max FI: 0.975
fold induction at 3.3 µM: 2540
fold induction at 33 µM: 1200

COc1cccc(C(=O)NN(C(=O)c2cc(C)cc(C)c2)C(C)(C)C)c1C [RG-102398]
EC50: 325 nM
27-63 assay Rel Max FI: 1.017
fold induction at 3.3 µM: 2880
fold induction at 33 µM: 3180

CCc1c(OC)cccc1C(=O)NN(C(=O)c1cc(C)cc(C)c1)C(CC)C(C)(C)C (stereo not drawn) [RG-115832]
Fold Induction, 27-63 Assay, 3.3 uM (average of two wells): 2063
Fold Induction, 27-63 Assay, 33 uM (average of two wells): 1435
27-63 assay Rel Max FI: 1.075
EC50 [1]: 35 nM

CCCC(N(NC(=O)c1cccc(OC)c1C)C(=O)c1cc(OC)c(C)c(OC)c1)C(C)(C)C (stereo not drawn) [RG-115824]
Fold Induction, 27-63 Assay, 3.3 uM (average of two wells): 2675
Fold Induction, 27-63 Assay, 33 uM (average of two wells): 948
27-63 assay Rel Max FI: 1.218
EC50 [1]: 36 nM

CCc1c(OC)cccc1C(=O)NN(C(=O)c1cc(C)cc(COC(C)=O)c1)C(C)(C)C [RG-115223]
Fold Induction, 27-63 Assay, 3.3 uM (average of two wells): 273
Fold Induction, 27-63 Assay, 33 uM (average of two wells): 1935
27-63 assay Rel Max FI: 1.167
EC50 [1]: 4680 nM

Cc1c(C(=O)NN(C(=O)c2ccc(F)cc2)C(C)(C)C)ccc2c1CCCO2 [RG-115118]
Fold Induction, 27-63 Assay, 3.3 uM (average of two wells): 1063
Fold Induction, 27-63 Assay, 33 uM (average of two wells): 914
27-63 assay Rel Max FI: 0.612
EC50 [1]: 394 nM
